Data as given in ChEMBL document CHEMBL1136884, “Antiplasmodial and antitrypanosomal activity of bicyclic amides and esters of dialkylamino acids” (Bioorg Med Chem, 2009).
The source made the active and inactive calls. The rule behind the calls is not given here.

Tests used:
Plasmodium falciparum = test: Antimalarial activity against chloroquine and pyrimethamine-resistant Plasmodium falciparum K1 after 48 hrs as [3H]hypoxanthine uptake; format: functional, organism-based
[1] = tested on: Trypanosoma brucei rhodesiense; test: Antitrypanosomal activity against Trypanosoma brucei rhodesiense after 72 hrs by alamar blue assay; format: functional, organism-based
L6 = test: Cytotoxicity against rat L6 cells after 72 hrs by alamar blue assay; format: cell-based; conditions: L6, 72 h
[2] = Selectivity index, ratio of IC50 for rat L6 cells to IC50 for Plasmodium falciparum K1; format: toxicity, cell-based; conditions: L6 cells (versus Plasmodium falciparum K1), read-out: Ratio IC50
[3] = Selectivity index, ratio of IC50 for rat L6 cells to IC50 for Trypanosoma brucei rhodesiense; format: toxicity, cell-based; conditions: L6 cells (versus Trypanosoma brucei rhodesiense), read-out: Ratio IC50
Plasmodium berghei [4] = test: Antiplasmodial activity against Plasmodium berghei ANKA infected Fu albino mice (Mus musculus) at 0.01 mL/kg intraperitoneal dose at 24 hrs as parasitaemia per 1000 erythrocytes; format: functional
Plasmodium berghei [5] = test: Antiplasmodial activity as increased MST against Plasmodium berghei ANKA infected Fu albino mice (Mus musculus) at 0.01 mL/kg intraperitoneal dose after 24 hrs; format: functional, organism-based

Structure (SMILES)	IC50 (Plasmodium falciparum) [nM]	IC50 [1] [nM]	IC50 (L6) [nM]	selectivity ratio [2]	selectivity ratio [3]	Activity (Plasmodium berghei [4]) [%]	Activity (Plasmodium berghei [5])
CN(C)C12CCNC(C(c3ccccc3)C1)C(c1ccccc1)C2 (centres undefined)	280	600	109000	389	181	–	–
CN(C)C12CC(OC(=O)CN3CCCC3)C(C(c3ccccc3)C1)C(c1ccccc1)C2 (centres undefined)	710	210	32700	46	156	–	–
CCN(CC)CC(=O)OC1CC2(N(C)C)CC(c3ccccc3)C1C(c1ccccc1)C2 (centres undefined)	2720	610	30100	11.1	49.4	–	–
O=C(CN1CCCC1)OC1CC2(N3CCCCC3)CC(c3ccccc3)C1C(c1ccccc1)C2 (centres undefined)	470	320	16400	34.9	51.2	–	–
CN(C)C12CC(OC(=O)CN3CCCCC3)C(C(c3ccccc3)C1)C(c1ccccc1)C2 (centres undefined)	520	1990	29300	56.3	14.7	–	–
O=C(CN1CCCCC1)OC1CC2(N3CCCC3)CC(c3ccccc3)C1C(c1ccccc1)C2 (centres undefined)	370	370	14200	38.4	38.4	–	–
c1ccc(C2CC3(N4CCCC4)CCNC2C(c2ccccc2)C3)cc1 (centres undefined)	560	1160	120000	215	104	–	–
CCN(CC)CC(=O)OC1CC2(N3CCCC3)CC(c3ccccc3)C1C(c1ccccc1)C2 (centres undefined)	200	720	49000	245	68.1	–	–
CCN(CC)CC(=O)OC1CC2(N3CCCCC3)CC(c3ccccc3)C1C(c1ccccc1)C2 (centres undefined)	250	560	23900	95.7	42.7	–	–
O=C(CN1CCCCC1)OC1CC2(N3CCCCC3)CC(c3ccccc3)C1C(c1ccccc1)C2 (centres undefined)	180	870	60400	336	69.4	–	–
c1ccc(C2CC3(N4CCCCC4)CCNC2C(c2ccccc2)C3)cc1 (centres undefined)	640	6570	89700	140	13.7	–	–
NC1CC2(N3CCCC3)CC(c3ccccc3)C1C(c1ccccc1)C2 (centres undefined)	650	410	38100	58.6	92.9	–	–
CN(C)C12CC(N)C(C(c3ccccc3)C1)C(c1ccccc1)C2 (centres undefined)	610	350	40900	67	117	–	–
NCC(=O)OC1CC2(N3CCCC3)CC(c3ccccc3)C1C(c1ccccc1)C2 (centres undefined)	700	230	42900	61.3	187	–	–
NC1CC2(N3CCCCC3)CC(c3ccccc3)C1C(c1ccccc1)C2 (centres undefined)	550	270	35000	63.5	129	–	–
CN1CCN(CC(=O)NC2CC3(N(C)C)CC(c4ccccc4)C2C(c2ccccc2)C3)CC1 (racemic)	2580	1600	66200	25.7	41.4	–	–
CN1CCN(CC(=O)NC2CC3(N4CCCC4)CC(c4ccccc4)C2C(c2ccccc2)C3)CC1 (racemic)	820	1130	50200	61.3	44.5	–	–

Structure (SMILES)	IC50 (Plasmodium falciparum) [nM]	IC50 [1] [nM]	IC50 (L6) [nM]	selectivity ratio [2]	selectivity ratio [3]	Activity (Plasmodium berghei [4]) [%]	Activity (Plasmodium berghei [5])
CN1CCN(CC(=O)OC2CC3(N4CCCC4)CC(c4ccccc4)C2C(c2ccccc2)C3)CC1 (racemic)	540	140	24600	45.5	176	–	–
CN1CCN(CC(=O)OC2CC3(N4CCCCC4)CC(c4ccccc4)C2C(c2ccccc2)C3)CC1 (racemic)	106	870	29500	278	33.9	15	inactive
CN1CCN(CCC(=O)N2CCC3(N4CCCC4)CC(c4ccccc4)C2C(c2ccccc2)C3)CC1 (racemic)	900	31900	75400	83.8	2.36	–	–
CN1CCN(CC(=O)N2CCC3(N4CCCC4)CC(c4ccccc4)C2C(c2ccccc2)C3)CC1 (racemic)	830	41100	69100	83.2	1.68	–	–
CN1CCN(CC(=O)N2CCC3(N4CCCCC4)CC(c4ccccc4)C2C(c2ccccc2)C3)CC1 (racemic)	620	92000	177000	286	1.93	–	–
CN1CCN(CC(=O)N2CCC3(N(C)C)CC(c4ccccc4)C2C(c2ccccc2)C3)CC1 (racemic)	2370	45800	195000	82.4	4.27	–	–
CN1CCN(CCC(=O)N2CCC3(N4CCCCC4)CC(c4ccccc4)C2C(c2ccccc2)C3)CC1 (racemic)	600	30800	120000	200	3.89	–	–
CN1CCN(CCC(=O)NC2CC3(N4CCCCC4)CC(c4ccccc4)C2C(c2ccccc2)C3)CC1 (racemic)	280	860	61100	218	71	–	–
CN1CCN(CC(=O)OC2CC3(N(C)C)CC(c4ccccc4)C2C(c2ccccc2)C3)CC1 (racemic)	350	130	39900	114	307	–	–
CN1CCN(CC(=O)NC2CC3(N4CCCCC4)CC(c4ccccc4)C2C(c2ccccc2)C3)CC1 (racemic)	380	690	57500	151	83.4	–	–
CN1CCN(CCC(=O)NC2CC3(N4CCCC4)CC(c4ccccc4)C2C(c2ccccc2)C3)CC1 (racemic)	2080	4150	86700	41.7	20.9	–	–
CN1CCN(CCC(=O)NC2CC3(N(C)C)CC(c4ccccc4)C2C(c2ccccc2)C3)CC1 (racemic)	4190	2740	95000	22.7	34.7	–	–
CN1CCN(CCC(=O)N2CCC3(N(C)C)CC(c4ccccc4)C2C(c2ccccc2)C3)CC1 (racemic)	1740	28200	128000	73.5	4.52	–	–
C[C@@H]1CC[C@H]2[C@@H](C)C(=O)O[C@@H]3O[C@@]4(C)CC[C@@H]1[C@]32OO4 [ARTEMISININ]	6.4	–	450000	70400	–	–	–
CCN(CC)CCCC(C)Nc1ccnc2cc(Cl)ccc12 (centres undefined) [CHLOROQUINE]	–	–	188000	–	–	–	–
Nc1nc(N)nc(Nc2ccc([As]3SCC(CO)S3)cc2)n1 (centres undefined) [MELARSOPROL]	–	3.9	7780	–	2000	–	–
